This note sets out measurements from patent US6004948A, “Derivatives of benzosulphonamides as inhibitors of the enzyme cyclooxygenase II” (Nycomed Austria GmbH, priority 1995, dated 1999).

The IC50 is the concentration that inhibits the measured activity by half.

Structures are written as SMILES.

One assay addresses T1, Human COX 1 (Homo sapiens, UniProt P23219).
T1 construct: arachidonic acid-induced aggregation of washed human thrombocytes; endogenous in cells; host or cells: washed human thrombocytes (platelets)
In words: Human COX 1 test (arachidonic acid-induced aggregation of washed human thrombocytes). It is filed as cell-based. The note with it: arachidonic acid 10 μM, 37° C., substance added 2 minutes before, read-out: COX I IC50. The protocol: The inhibition of arachidonic acid-induced aggregation of washed human thrombocytes was used as a test system for assessing the inhibition of cyclooxygenase I. The test substances were added to a thrombocyte suspension at 37° C. 2 minutes before the addition of the arachidonic acid (final concentration 10 μM) and the course of aggregation was measured using an aggregometer. By means of a concentration-activity curve the concentration of test substance at which 50% aggregation is measured was determined (IC50).

The target of a further assay is T2, Human COX-2 (Homo sapiens, UniProt P35354).
T2 construct: endogenous in cells
T2 sequence (P35354 18-604): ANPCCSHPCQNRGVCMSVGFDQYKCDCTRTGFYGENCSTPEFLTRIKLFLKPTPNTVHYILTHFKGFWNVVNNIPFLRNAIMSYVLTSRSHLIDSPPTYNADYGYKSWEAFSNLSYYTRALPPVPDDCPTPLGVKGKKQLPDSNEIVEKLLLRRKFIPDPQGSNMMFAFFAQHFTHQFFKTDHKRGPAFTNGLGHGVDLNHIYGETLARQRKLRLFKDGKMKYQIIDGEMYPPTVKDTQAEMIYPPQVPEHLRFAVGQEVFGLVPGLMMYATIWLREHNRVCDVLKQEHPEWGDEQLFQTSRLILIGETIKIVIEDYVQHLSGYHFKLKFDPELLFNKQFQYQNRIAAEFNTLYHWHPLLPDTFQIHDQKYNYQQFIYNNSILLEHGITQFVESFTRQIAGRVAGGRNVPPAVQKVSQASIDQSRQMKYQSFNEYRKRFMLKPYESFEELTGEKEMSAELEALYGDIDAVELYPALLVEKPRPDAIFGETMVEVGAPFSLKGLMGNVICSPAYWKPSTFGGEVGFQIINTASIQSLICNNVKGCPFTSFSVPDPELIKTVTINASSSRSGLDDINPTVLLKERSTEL
In words: Human COX-2 test (LPS-stimulated human monocytoid cell line, arachidonic acid, cyclooxygenase products by ELISA). It is filed as cell-based. The note with it: for IC50: human monocytoid cell line, LPS-stimulated, half an hour pre-incubation, arachidonic acid 15 minutes, ELISA, read-out: COX II IC50; for COX I/COX II: selectivity obtained from the two tests, ratio of COX I IC50 to COX II IC50. The protocol: Cells from a human monocytoid cell line are stimulated with LPS (incubator at 37° C., 5% CO2 -enriched atmosphere and approximately 100% relative humidity), in order to induce COX-2. Then the culture medium (RPMI 1640 enriched with 10% FCS, 2 mM glutamine, […], […] and 1 mM pyruvate) was renewed and potential inhibitors of cyclooxygenase-2, dissolved in culture medium or in phosphate-buffered saline or in any other solvent which is compatible with cell culture, were added and incubated for half an hour as described above. Arachidonic acid was pipetted in and incubation was continued for 15 minutes. The culture supernatant of the cells was removed and its content of products of cyclooxygenase metabolism (such as prostaglandin E2, prostaglandin F1a and thromboxane B2) was measured by ELISA.
Background: An ELISA detects its analyte on a solid surface through an enzyme-linked reagent.

T1 sequence (P23219 24-599): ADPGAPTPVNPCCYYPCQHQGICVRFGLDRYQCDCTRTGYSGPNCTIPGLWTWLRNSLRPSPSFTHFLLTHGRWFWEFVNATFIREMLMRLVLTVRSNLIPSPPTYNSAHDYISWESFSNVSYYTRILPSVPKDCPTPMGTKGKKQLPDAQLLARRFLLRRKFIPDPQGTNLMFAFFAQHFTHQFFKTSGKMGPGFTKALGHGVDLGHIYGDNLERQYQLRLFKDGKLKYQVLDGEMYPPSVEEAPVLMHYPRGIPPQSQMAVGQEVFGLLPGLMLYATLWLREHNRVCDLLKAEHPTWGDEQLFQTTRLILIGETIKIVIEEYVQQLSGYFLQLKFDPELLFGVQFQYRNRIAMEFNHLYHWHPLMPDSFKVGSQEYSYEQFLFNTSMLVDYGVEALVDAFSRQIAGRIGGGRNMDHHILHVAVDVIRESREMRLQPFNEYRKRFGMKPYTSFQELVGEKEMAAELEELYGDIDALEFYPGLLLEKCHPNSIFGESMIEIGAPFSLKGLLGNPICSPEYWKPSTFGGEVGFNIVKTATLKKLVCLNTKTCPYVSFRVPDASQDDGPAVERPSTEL

`CS(=O)(=O)Nc1cc2c(cc1Oc1ccccc1)S(=O)(=O)NC2` [Example 4, 6-(Phenoxy) -5-methylsulphonylamino-2H-1,2-benzothiazolidin-1,1-dioxide]: the IC50 on Human COX 1 is no less than 45000 nM. At Human COX-2, the IC50 was 110 nM and the “COX I/COX II” value is no less than 450.
The like results for `CS(=O)(=O)Nc1ccc(S(N)(=O)=O)cc1Sc1ccc(Br)cc1` [Example 26, 3-(4-Bromophenylthio)-4-methylsulphonylaminobenzenesulphonamide] were, in that order, no less than 70000 nM, 270 nM and no less than 253.
The like results for `CS(=O)(=O)Nc1ccc(S(N)(=O)=O)cc1Sc1ccc(F)cc1Cl` [Example 8, 3-(2-Chloro-4-fluorothiophenoxy)-4-methylsulphonylamino-benzene-sulphonamide] were, in that order, 11000 nM, 150 nM and 73.
As to `CS(=O)(=O)Nc1ccc(S(N)(=O)=O)cc1Sc1ccc(F)cc1F` [Example 6, 3-(2,4-Difluorothiophenoxy)-4-methylsulphonylamino-benzenesulphonamide], on Human COX 1, the half-maximal inhibitory concentration (IC50) was found to be 52000 nM. At Human COX-2, the IC50 came to 200 nM and the “COX I/COX II” value is reported as 260.
Regarding `CS(=O)(=O)Nc1ccc(S(N)(=O)=O)cc1SC1CCCCC1` [Example 19, 3-(Cyclohexylthio)-4-methylsulphonylaminobenzene-sulphonamide], the half-inhibitory concentration (IC50) at Human COX 1 is no less than 60000 nM. Also, at Human COX-2, the IC50 turned out to be 540 nM and the “COX I/COX II” value is on record as no less than 110.
With `CS(=O)(=O)Nc1ccc(S(N)(=O)=O)cc1Sc1ccc(Cl)cc1` [Example 17, 3-(4-Chlorophenylthio) -4-methylsulphonylaminobenzenesulphonamide], the IC50 at Human COX 1 turned out to be 60000 nM. At Human COX-2, the half-maximal inhibitory concentration (IC50) was 170 nM and the “COX I/COX II” value is 353.
For the molecule `CS(=O)(=O)Nc1ccc(S(N)(=O)=O)cc1Sc1ccc(Cl)cc1Cl` [Example 7, 3-(2,4-Dichlorothiophenoxy)-4-methylsulphonylamino-benzenesulphonamide], the half-inhibitory concentration (IC50) on Human COX 1 was found to be 27000 nM. Moreover, at Human COX-2, the concentration for half-maximal inhibition (IC50) came out at 27 nM and the “COX I/COX II” value worked out at 1000.
For `CS(=O)(=O)Nc1ccc(S(N)(=O)=O)cc1Oc1ccc(Cl)cc1Cl` [Example 1, 3-(2,4-Dichlorophenoxy)-4-methylsulphonylamino-benzenesulphonamide], the 50% inhibitory concentration (IC50) is no less than 50000 nM at Human COX 1 and 100 nM on Human COX-2. Besides, the “COX I/COX II” value at Human COX-2 is no less than 500.
Regarding `CS(=O)(=O)Nc1ccc(S(N)(=O)=O)cc1Sc1ccccc1Cl` [Example 25, 3-(2-Chlorophenylthio)-4-methylsulphonylaminobenzene-sulphonamide], at Human COX 1, the half-inhibitory concentration (IC50) is no less than 35000 nM. Further, at Human COX-2, the IC50 turned out to be 170 nM and the “COX I/COX II” value is no less than 196.
